Data: PMC7699592, “Interaction between the Lentil Lipid Transfer Protein Lc-LTP2 and Its Novel Signal Ligand PI(4,5)P2” (Membranes, 2020)

What was measured:
Assay type in all cases: binding
[1] = target: T1, LTP from strawberry (strawberry LTP) (Fragaria x ananassa, UniProt Q8VX12); test: TNS fluorescent probe displacement; conditions: 4 uM LTP, 10 uM PI(4,5)P2, 3 uM TNS, pH 7.0, 25 °C
T1 construct: recombinant, overexpressed in Escherichia coli, purified; four disulfide bonds

Lc-LTP2 [2] = target: T2, Lc-LTP2 (Lens culinaris, UniProt A0AT29, R70A/Y105A); test: TNS fluorescent probe displacement; conditions: 4 uM LTP, 10 uM PI(4,5)P2, 3 uM TNS, pH 7.0, 25 °C
T2 construct: recombinant mature protein, overexpressed in Escherichia coli, purified; four disulfide bonds

[3] = target: T3, LTP from ragweed (ragweed LTP) (Ambrosia artemisiifolia, UniProt O04004); test: TNS fluorescent probe displacement; conditions: 4 uM LTP, 10 uM PI(4,5)P2, 3 uM TNS, pH 7.0, 25 °C
T3 construct: recombinant, overexpressed in Escherichia coli, purified; four disulfide bonds
T3 sequence (O04004 26-118): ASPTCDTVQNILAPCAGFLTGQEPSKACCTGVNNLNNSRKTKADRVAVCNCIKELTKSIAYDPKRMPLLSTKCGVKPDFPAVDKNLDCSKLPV

[4] = target: T4, LTP from mugwort (mugwort LTP) (Artemisia vulgaris, UniProt C4MGG9); test: TNS fluorescent probe displacement; conditions: 4 uM LTP, 10 uM PI(4,5)P2, 3 uM TNS, pH 7.0, 25 °C
T4 construct: gene Art v 3; recombinant, overexpressed in Escherichia coli, purified; four disulfide bonds
T4 sequence (C4MGG9 24-114): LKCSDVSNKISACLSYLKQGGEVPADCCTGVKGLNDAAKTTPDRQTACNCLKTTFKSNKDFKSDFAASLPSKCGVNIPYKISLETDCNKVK

Lc-LTP2 [5] = target: T5, Lc-LTP2 (Lens culinaris, UniProt A0AT29); test: TNS fluorescent probe displacement; conditions: 4 uM LTP, 10 uM PI(4,5)P2, 3 uM TNS, pH 7.0, 25 °C
T5 construct: recombinant mature protein, overexpressed in Escherichia coli, purified; four disulfide bonds
T5 sequence (A0AT29 26-118): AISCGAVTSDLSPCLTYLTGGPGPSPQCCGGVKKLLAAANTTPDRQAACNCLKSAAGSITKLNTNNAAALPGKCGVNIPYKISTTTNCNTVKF

Lc-LTP2 [6] = target: T6, Lc-LTP2 (Lens culinaris, UniProt A0AT29, Y105A); test: TNS fluorescent probe displacement; conditions: 4 uM LTP, 10 uM PI(4,5)P2, 3 uM TNS, pH 7.0, 25 °C
T6 construct: recombinant mature protein, overexpressed in Escherichia coli, purified; four disulfide bonds

[7] = target: T7, LTP from strawberry (strawberry LTP) (Fragaria x ananassa, UniProt Q8VX12); test: protein-lipid overlay on membrane lipid strips; conditions: lipid immobilised, […] per spot; PBS; anti-Lc-LTP2 antibody detection
T7 construct: gene lpt46; recombinant, overexpressed in Escherichia coli, purified; four disulfide bonds
T7 sequence (Q8VX12 27-117): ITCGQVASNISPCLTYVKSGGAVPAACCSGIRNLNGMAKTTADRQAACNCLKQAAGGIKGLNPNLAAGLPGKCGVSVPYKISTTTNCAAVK

[8] = target: T4, LTP from mugwort (mugwort LTP); test: protein-lipid overlay on membrane lipid strips; conditions: lipid immobilised, 100 pM per spot; PBS; anti-Lc-LTP2 antibody detection
[9] = target: T3, LTP from ragweed (ragweed LTP); test: protein-lipid overlay on membrane lipid strips; conditions: lipid immobilised, 100 pM per spot; PBS; anti-Lc-LTP2 antibody detection

T6 sequence (A0AT29 26-118 Y105A): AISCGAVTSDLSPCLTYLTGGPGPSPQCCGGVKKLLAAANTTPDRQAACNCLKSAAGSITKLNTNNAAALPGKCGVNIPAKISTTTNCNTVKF
T2 sequence (A0AT29 26-118 R70A/Y105A): as the sequence (A0AT29 26-118 Y105A) above, with R45A counted along it

Compound | % reduction of LTP-TNS fluorescence [1] | % reduction of LTP-TNS fluorescence (Lc-LTP2 [2]) | % reduction of LTP-TNS fluorescence [3] | % reduction of LTP-TNS fluorescence [4] | % reduction of LTP-TNS fluorescence (Lc-LTP2 [5]) | % reduction of LTP-TNS fluorescence (Lc-LTP2 [6]) | protein-lipid overlay on membrane lipid strips [7] | protein-lipid overlay on membrane lipid strips [8] | protein-lipid overlay on membrane lipid strips [9]
PI(4,5)P2 | 14% | 16% | 9% | 11% | 21% | 8% | – | – | –
CCCCCCCCCCCCCCCC(=O)OC[C@H](COP(=O)(O)O[C@@H]1[C@H](O)[C@H](O)[C@@H](OP(=O)(O)O)[C@H](OP(=O)(O)O)[C@H]1O)OC(=O)CCCCCCCCCCCCCCC [PI(4,5)P2 diC16] | – | – | – | – | – | – | Protein-lipid overlay assays with other LTPs from the abovementioned plants led to the same results | Protein-lipid overlay assays with other LTPs from the abovementioned plants led to the same results | Protein-lipid overlay assays with other LTPs from the abovementioned plants led to the same results
